The target of the data set is Bile salt export pump (Homo sapiens, UniProt O95342). The experiment in a line: TP_TRANSPORTER: Western in vitro, primary human hepatocyte. The data set is classed as functional, cell-based. The note with it: hepatocytes.

The values below come from ChEMBL document CHEMBL2073765, “Disrupted bile acid homeostasis reveals an unexpected interaction among nuclear hormone receptors, transporters, and cytochrome P450” (J Biol Chem, 2001).

Bile salt export pump, sequence (O95342 whole entry): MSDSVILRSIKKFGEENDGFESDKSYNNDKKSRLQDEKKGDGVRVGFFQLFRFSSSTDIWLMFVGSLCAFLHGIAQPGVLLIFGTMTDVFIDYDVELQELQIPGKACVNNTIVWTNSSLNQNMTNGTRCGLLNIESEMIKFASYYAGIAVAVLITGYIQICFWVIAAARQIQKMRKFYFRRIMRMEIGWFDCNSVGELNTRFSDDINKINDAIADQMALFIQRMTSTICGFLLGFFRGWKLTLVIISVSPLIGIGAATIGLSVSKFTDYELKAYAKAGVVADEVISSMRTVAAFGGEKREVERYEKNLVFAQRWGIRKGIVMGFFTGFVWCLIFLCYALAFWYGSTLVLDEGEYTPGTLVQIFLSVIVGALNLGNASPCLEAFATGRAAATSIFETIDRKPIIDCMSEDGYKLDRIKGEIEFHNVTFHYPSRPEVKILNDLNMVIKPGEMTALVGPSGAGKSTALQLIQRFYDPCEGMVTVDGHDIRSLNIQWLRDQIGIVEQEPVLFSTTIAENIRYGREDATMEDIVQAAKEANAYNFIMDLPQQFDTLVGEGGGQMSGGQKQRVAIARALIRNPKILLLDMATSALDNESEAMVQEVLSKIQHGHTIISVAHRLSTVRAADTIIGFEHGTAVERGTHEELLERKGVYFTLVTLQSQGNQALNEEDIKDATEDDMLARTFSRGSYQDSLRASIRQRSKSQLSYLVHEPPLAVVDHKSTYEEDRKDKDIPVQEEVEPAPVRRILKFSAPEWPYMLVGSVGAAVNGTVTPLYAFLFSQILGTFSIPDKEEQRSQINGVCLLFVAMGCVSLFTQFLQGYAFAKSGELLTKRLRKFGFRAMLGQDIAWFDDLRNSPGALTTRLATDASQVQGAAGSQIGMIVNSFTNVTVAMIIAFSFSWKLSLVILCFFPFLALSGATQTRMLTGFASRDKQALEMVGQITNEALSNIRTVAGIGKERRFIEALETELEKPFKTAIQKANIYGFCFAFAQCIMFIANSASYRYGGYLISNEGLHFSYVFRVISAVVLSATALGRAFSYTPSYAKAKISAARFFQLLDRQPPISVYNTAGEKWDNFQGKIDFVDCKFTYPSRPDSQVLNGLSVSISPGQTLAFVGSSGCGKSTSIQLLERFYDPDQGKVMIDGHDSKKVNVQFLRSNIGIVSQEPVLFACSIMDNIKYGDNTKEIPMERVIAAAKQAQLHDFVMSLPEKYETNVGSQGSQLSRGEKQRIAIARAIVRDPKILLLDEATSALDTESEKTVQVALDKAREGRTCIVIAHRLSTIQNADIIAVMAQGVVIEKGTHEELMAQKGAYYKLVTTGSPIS

Regarding `C[C@H](CCC(=O)O)[C@H]1CC[C@H]2[C@@H]3[C@H](O)C[C@@H]4C[C@H](O)CC[C@]4(C)[C@H]3CC[C@]12C` [CHENODIOL], the Activity entry was “inducer [+]”.

As to `C[C@H](CCC(=O)O)[C@H]1CC[C@H]2[C@@H]3CC[C@@H]4C[C@H](O)CC[C@]4(C)[C@H]3C[C@H](O)[C@]12C` [DEOXYCHOLIC ACID], the Activity result was “inducer [+]”.
